Data published in ChEMBL document CHEMBL5506065, “Discovery of Novel Non-Nucleoside Inhibitors Interacting with Dizinc Ions of CD73” (J Med Chem, 2024).
The source made the active and inactive calls. The rule behind the calls is not given here.

Tests used:
[1] = Inhibition of recombinant human CD73 expressed in Escherichia coli using AMP as substrate measured after 60 mins by malachite green method
[2] = Inhibition of CD73 in human MDA-MB-231 cells using AMP substrate measured after 60 mins by cell based - malachite green phosphate assay; conditions: MDA-MB-231, 1 h
[3] = Half life in male Sprague-Dawley rat; assay type: ADME; conditions: in vivo
E.G7-OVA [4] = experiment: In vivo antitumor activity against mouse E.G7-OVA T cell lymphoma subcutaneously injected in syngeneic C57/BL6 mouse model assessed as tumor growth inhibition at 2.5 mg/kg, iv qw (tail vein) measured after 16 days; assay type: functional; conditions: 384 h, time 16 day, read-out: TGI
[5] = Cmax in male Sprague-Dawley rat at 1 mg/kg, iv; assay type: ADME, organism-based; conditions: in vivo
[6] = Tmax in male Sprague-Dawley rat at 1 mg/kg, iv; assay type: ADME, organism-based; conditions: in vivo
[7] = Half life in male Sprague-Dawley rat at 1 mg/kg, iv; assay type: ADME, organism-based; conditions: in vivo
[8] = AUC (0 to t) in male Sprague-Dawley rat at 1 mg/kg, iv; assay type: ADME, organism-based; conditions: in vivo
[9] = Clearance in male Sprague-Dawley rat at 1 mg/kg, iv; assay type: ADME, organism-based; conditions: in vivo
[10] = Cmax in male Sprague-Dawley rat at 10 mg/kg, po; assay type: ADME, organism-based; conditions: in vivo
[11] = Tmax in male Sprague-Dawley rat at 10 mg/kg, po; assay type: ADME, organism-based; conditions: in vivo
[12] = Half life in male Sprague-Dawley rat at 10 mg/kg, po; assay type: ADME, organism-based; conditions: in vivo
[13] = AUC (0 to t) in male Sprague-Dawley rat at 10 mg/kg, po; assay type: ADME, organism-based; conditions: in vivo
[14] = Clearance in male Sprague-Dawley rat at 10 mg/kg, po; assay type: ADME, organism-based; conditions: in vivo
E.G7-OVA [15] = experiment: In vivo antitumor activity against mouse E.G7-OVA T cell lymphoma subcutaneously injected in syngeneic C57/BL6 mouse model assessed as tumor growth inhibition at 50 mg/kg, ip measured after 14 days; assay type: functional; conditions: 336 h, time 14 day, read-out: TGI
E.G7-OVA [16] = experiment: In vivo antitumor activity against mouse E.G7-OVA T cell lymphoma subcutaneously injected in syngeneic C57/BL6 mouse model assessed as tumor growth inhibition in presence of KG035 at 50 mg/kg, ip measured after 14 days; assay type: functional; conditions: 336 h, time 14 day, read-out: TGI
[17] = Toxicity in C57/BL6 mouse subcutaneously injected with mouse E.G7-OVA T cells assessed as change in body weight at 1 mg/kg, iv qd treated for 16 days; assay type: organism-based, T-cell; conditions: in vivo, 384 h, time 16 day
E.G7-OVA [18] = experiment: In vivo antitumor activity against mouse E.G7-OVA T cell lymphoma subcutaneously injected in syngeneic C57/BL6 mouse model assessed as tumor growth inhibition at 1 mg/kg, iv qd (tail vein) measured after 16 days; assay type: functional; conditions: 384 h, time 16 day, read-out: TGI
E.G7-OVA [19] = experiment: In vivo antitumor activity against mouse E.G7-OVA T cell lymphoma subcutaneously injected in syngeneic C57/BL6 mouse model assessed as tumor growth inhibition in presence of doxorubicin at 1 mg/kg, iv qd (tail vein) measured after 16 days; assay type: functional; conditions: 384 h, time 16 day, read-out: TGI
E.G7-OVA [20] = experiment: (§1) In vivo antitumor immunity against mouse E.G7-OVA T cell lymphoma subcutaneously injected in syngeneic C57/BL6 mouse model assessed as tumor-infiltrating lymphocyte by measuring increase in CD8 positive/Treg ratio at 1 mg/kg, iv qd (tail vein) measured after 16 days by flow cytometry; assay type: functional, organism-based; conditions: time 16.0 day
E.G7-OVA [21] = experiment: as §1, with “ratio in presence of doxorubicin” for “ratio”; assay type: functional, organism-based; conditions: time 16.0 day
E.G7-OVA [22] = experiment: as §1, with “positive T cell in total CD45 positive cells” for “positive/Treg ratio”; assay type: functional, organism-based; conditions: time 16.0 day
E.G7-OVA [23] = experiment: as §1, with “positive T cell in total CD45 positive cells in presence of doxorubicin” for “positive/Treg ratio”; assay type: functional, organism-based; conditions: time 16.0 day

IC50 [1] [µM]	IC50 [2] [µM]	SMILES	also measured
0.78	1.62	O=C(O)C(Cc1ccc(-c2ccccc2)cc1)(OCc1n[nH]c2cc(-n3nnc4c(F)cc(Br)cc43)ccc12)C(=O)O	
0.33	0.55	O=C(O)C(Cc1ccccc1)(OCc1n[nH]c2cc(-n3nnc4c(F)cc(NCc5ccccc5)cc43)ccc12)C(=O)O	
1.1	1.52	Cc1cc(F)c2nnn(-c3ccc4c(COC(Cc5ccccc5)(C(=O)O)C(=O)O)n[nH]c4c3)c2c1	
0.13	0.09	O=C(O)C(Cc1ccccc1)(OCc1n[nH]c2cc(-n3nnc4c(F)cc(Cl)cc43)ccc12)C(=O)O	half-life [3]: 2.1 h
		COc1cccc2c1C(=O)c1c(O)c3c(c(O)c1C2=O)C[C@@](O)(C(=O)CO)C[C@@H]3O[C@H]1C[C@H](N)[C@H](O)[C@H](C)O1 [DOXORUBICIN]	inhibition in vivo at 2.5 mg/kg (E.G7-OVA [4]): 34.7%
0.17	0.04	Cc1nnc(-c2c[nH]c(=O)[nH]c2=O)cc1[C@H]1C[C@@H]1C(C)C [LY-3475070]	
0.9	0.95	C=Cc1cc(F)c2nnn(-c3ccc4c(COC(Cc5ccccc5)(C(=O)O)C(=O)O)n[nH]c4c3)c2c1	
> 20	7.1	CCOC(=O)C(Cc1ccccc1)(OCc1n[nH]c2cc(-n3nnc4c(F)cc(Br)cc43)ccc12)C(=O)O (stereo not given)	
	0.1	[2H]C([2H])(OC(Cc1ccccc1)(C(=O)O)C(=O)O)c1n[nH]c2cc(-n3nnc4c(F)cc(Cl)cc43)ccc12	Cmax [5]: 19.1 µg/mL; Tmax [6]: 4.8 min; half-life [7]: 2.5 h; AUC(0-t) [8]: 8.74 µg·h/mL; clearance [9]: 0.115 L/h/kg; Cmax [10]: 0.0686 µg/mL; Tmax [11]: 0.3 h; half-life [12]: 2.1 h; AUC(0-t) [13]: 0.0995 µg·h/mL; CL/F [14]: 109 L/h/kg
1.03	0.61	Cn1cc(CC(OCc2n[nH]c3cc(-n4nnc5c(F)cc(Br)cc54)ccc23)(C(=O)O)C(=O)O)c(C(F)(F)F)n1	
0.001	0.001	C[C@H](Nc1cc(Cl)nc2c1cnn2[C@@H]1O[C@H](COP(=O)(O)CP(=O)(O)O)[C@@H](O)[C@H]1O)c1ccccc1F [QUEMLICLUSTAT]	
0.53	0.63	CC(=O)Nc1nc(CC(OCc2n[nH]c3cc(-n4nnc5c(F)cc(Br)cc54)ccc23)(C(=O)O)C(=O)O)cs1	
0.2	0.13	O=C(O)C(Cc1ccccc1F)(OCc1n[nH]c2cc(-n3nnc4c(F)cc(Br)cc43)ccc12)C(=O)O	
0.37	0.06	Cc1noc(C)c1CC(OCc1n[nH]c2cc(-n3nnc4c(F)cc(Br)cc43)ccc12)(C(=O)O)C(=O)O	
1.43	1	O=C(O)C(Cc1ccccc1)(OCc1n[nH]c2cc(-n3nnc4c(F)cc(C5CC5)cc43)ccc12)C(=O)O	
2.07	0.32	O=C(O)C(Cc1ccc(C(F)(F)F)cc1)(OCc1n[nH]c2cc(-n3nnc4c(F)cc(Br)cc43)ccc12)C(=O)O	

IC50 [1] [µM]	IC50 [2] [µM]	SMILES	also measured
8.7	3.4	O=C(O)C(OCc1n[nH]c2cc(-n3nnc4c(F)cc(Br)cc43)ccc12)C(=O)O	
0.54	0.4	O=C(O)C(Cc1ccc(F)cc1)(OCc1n[nH]c2cc(-n3nnc4c(F)cc(Br)cc43)ccc12)C(=O)O	
0.19	0.18	O=C(O)C(Cc1cn[nH]c1)(OCc1n[nH]c2cc(-n3nnc4c(F)cc(Br)cc43)ccc12)C(=O)O	
> 20	> 20	Fc1cc(Br)cc2c1nnn2-c1ccc2cn[nH]c2c1	
0.89	0.23	O=C(O)C(Cc1ccc(C(F)(F)F)o1)(OCc1n[nH]c2cc(-n3nnc4c(F)cc(Br)cc43)ccc12)C(=O)O	
1.31	1.1	O=C(O)C(Cc1ccccc1)(OCc1n[nH]c2cc(-n3nnc4c(F)cc([C@@H](O)CO)cc43)ccc12)C(=O)O	
0.69	0.38	CC(C)(C#N)c1ccc(CC(OCc2n[nH]c3cc(-n4nnc5c(F)cc(Br)cc54)ccc23)(C(=O)O)C(=O)O)cc1	
0.2	0.28	Nc1cc(F)c2nnn(-c3ccc4c(COC(Cc5ccccc5)(C(=O)O)C(=O)O)n[nH]c4c3)c2c1	
0.59	1.03	Cc1cccc(C)c1CC(OCc1n[nH]c2cc(-n3nnc4c(F)cc(Br)cc43)ccc12)(C(=O)O)C(=O)O	
0.49	0.56	O=C(O)C(Cc1ccccc1)(OCc1n[nH]c2cc(-n3nnc4c(F)cc(NC5CCCC5)cc43)ccc12)C(=O)O	
35	0.34	Cc1ccccc1CC(OCc1n[nH]c2cc(-n3nnc4c(F)cc(Br)cc43)ccc12)(C(=O)O)C(=O)O	
1.55	1.77	CC(C)OCc1cc(F)c2nnn(-c3ccc4c(COC(Cc5ccccc5)(C(=O)O)C(=O)O)n[nH]c4c3)c2c1	
0.7	0.62	O=C(O)C(Cc1ccccc1)(OCc1n[nH]c2cc(-n3nnc4c(F)cc(NCc5ccccc5C5CC5)cc43)ccc12)C(=O)O	
1.42	0.62	O=C(O)C(Cc1ccccc1)(OCc1n[nH]c2cc(-n3nnc4c(F)cc(C5CCC5)cc43)ccc12)C(=O)O	
0.06	0.04	O=C(O)C(Cc1ccccc1)(OCc1n[nH]c2cc(-n3nnc4c(F)cc(Br)cc43)ccc12)C(=O)O	Cmax [5]: 14.5 µg/mL; Tmax [6]: 4.8 min; half-life [7]: 1 h; AUC(0-t) [8]: 7.22 µg·h/mL; clearance [9]: 0.145 L/h/kg; Cmax [10]: 0.124 µg/mL; Tmax [11]: 0.5 h; half-life [12]: 1.2 h; AUC(0-t) [13]: 0.144 µg·h/mL; CL/F [14]: 72.6 L/h/kg; inhibition in vivo at 50 mg/kg (E.G7-OVA [15]): 41.1%; inhibition in vivo at 50 mg/kg (E.G7-OVA [16]): 47.5%; Activity [17]: Non-Toxic; inhibition in vivo at 1 mg/kg (E.G7-OVA [18]): 12.5%; inhibition in vivo at 1 mg/kg (E.G7-OVA [19]): 44.2%; Activity (E.G7-OVA [20]): Active; Activity (E.G7-OVA [21]): Active; Activity (E.G7-OVA [22]): Active; Activity (E.G7-OVA [23]): Active
